MIC and ED50 data for 4 compounds are collected here from EP0750618B1, “OXAZOLIDINONE DERIVATIVES AND PHARMACEUTICAL COMPOSITIONS CONTAINING THEM” (priority 1994, dated 1995).

For test [1], the system named is Mycobacterium tuberculosis. In words: MIC test, standard agar dilution method. It is filed as cell-based. The conditions noted are these: read-out: Minimum Inhibitory Concentrations (MIC) M. tuberculosis. A general note: In agar dilution the substance is mixed into plates at graded concentrations.
The test system of another test is Staphylococcus aureus. Put plainly: MIC test, standard agar dilution method.
For test [2], the system named is Streptococcus pyogenes (UC 152). In words: MIC test, standard agar dilution method. The conditions noted are these: UC152, read-out: Minimum Inhibitory Concentrations (MIC) S. pyogenes.
Test [3] has as its system Staphylococcus epidermidis (UC 12084). Put plainly: MIC test, standard agar dilution method. The format is cell-based. The conditions noted are these: UC12084, incubated overnight at 35°C, read-out: Minimum Inhibitory Concentrations (MIC) S. enidermidis.
Test [4] has as its system Staphylococcus aureus (UC 9213). In words: Murine Assay procedure (in vivo), survival after intraperitoneal infection. The conditions noted are these: UC9213, 144 h, oral administration one hour and five hours after infection, female mice infected i.p. with S. aureus UC 9213, survival over six days, probit analysis. The protocol:
Groups of female mice (six mice of 18-20 grams each) were injected intraperitoneally with Staphylococcus aureus (UC 9213) bacteria which were thawed just prior to use and suspended in brain heart infusion with 4% brewer's yeast (Staphylococcus aureus) or brain heart infusion (Streptococcus species). Antibiotic treatment at six dose levels per drug (compound) was administered one hour and five hours after infection by either oral intubation or subcutaneous routes. Survival was observed daily for six days. ED50 values based on mortality ratios were calculated using probit analysis.

The mark [5] stands for this setting: UC9213, read-out: Minimum Inhibitory Concentrations (MIC) S. aureus.

Converted amounts (≈) assume the structure as drawn. Read-outs that look alike come from different tables or passages of the source.

With `CC(=O)NC[C@H]1CN(c2ccc(N3CCC(O)CC3)c(F)c2)C(=O)O1` [Compound No. 3, (S)-N-{3-[3-fluoro-4-(4-hydroxy-piperidin-1-yl)-phenyl]-2-oxo-oxazolidin-5-ylmethyl}-acetamide], the MIC worked out at 1 µg/mL (≈ 2.85 µM) in test [1], 8 µg/mL (≈ 22.8 µM) with Staphylococcus aureus (setting [5]), 2 µg/mL (≈ 5.69 µM) in test [2] and 2 µg/mL (≈ 5.69 µM) in test [3].

On to `CCOC(=O)C1CCN(c2ccc(N3C[C@H](CNC(C)=O)OC3=O)cc2F)CC1` [Compound No. 1, (S)-1-{4-[5-(acetylamino-methyl)-2-oxo-oxazolidin-3-yl]-2-fluoro-phenyl}-piperidine-4-carboxylic acid ethyl ester], for which the MIC in test [1] came to 1 µg/mL (≈ 2.45 µM); in the test on Staphylococcus aureus (UC9218, read-out: Minimum Inhibitory Concentrations (MIC) S. aureus) it was 8 µg/mL (≈ 19.6 µM); in test [2], 2 µg/mL (≈ 4.91 µM); in test [3], 2 µg/mL (≈ 4.91 µM).

By ED50 is commonly meant the midpoint of the dose-response relation. A lower ED50 goes with an effect at a small dose. Take `CC(=O)NC[C@H]1CN(c2ccc(N3CCC(=NO)CC3)c(F)c2)C(=O)O1` [Compound No. 11, (S)-N-{3-[3-fluoro-4-(4-hydroxyimino-piperidin-1-yl)-phenyl]-2-oxo-oxazolidin-5-ylmethyl}-acetamide]: the MIC was determined as 2 µg/mL (≈ 5.49 µM) with Staphylococcus aureus (setting [5]), 1 µg/mL (≈ 2.74 µM) in test [2] and 1 µg/mL (≈ 2.74 µM) in test [3]. In test [4], the 50% effect level (ED50) was put at a dose of 8.2 mg/kg.

For the compound `CC(=O)NC[C@H]1CN(c2ccc(N3CCC(=O)CC3)c(F)c2)C(=O)O1` [Compound No. 7, (S)-N-{3-[3-fluoro-4-(4-oxo-piperidin-1-yl)-phenyl]-2-oxo-oxazolidin-5-ylmethyl}-acetamide], the MIC is 2 µg/mL (≈ 5.72 µM) in the test on Staphylococcus aureus (setting [5]), 2 µg/mL (≈ 5.72 µM) in test [2] and 0.5 µg/mL (≈ 1.43 µM) in test [3]. Moreover, the 50% effect level in test [4] (ED50) was put at a dose of 8.1 mg/kg.
